The subject of the test is PCA response. Put plainly: rat Passive Cutaneous Anaphylaxis Test (PCA test). It counts as in vivo, rat (male Wistar). To be noted: subcutaneous, as sodium salt. How it is done:
Some of the 4-hydroxycarbostyrils prepared in the preceding examples were tested in the rat Passive Cutaneous Anaphylaxis Test (PCA test), described below. They were administered as their sodium salts either in pH 7.2 phosphate buffer (for soluble salts) or as a suspension in 1% methyl cellulose (for insoluble salts).
Male Wistar rats of 250-300g, were injected intraperitoneally with 0.5 ml. of Bordatella pertussis vaccine (containing 4 × 10^10 dead organism per ml) and subcutaneously with 0.5 ml. of an emulsion of 100 mg. of ovalbumin in 2 ml of saline and 3 ml. of incomplete Freunds' adjuvant. Rats were bled by cardiac puncture on day 18, the blood was pooled and separated and serum stored at -20° and thawed only once before use.
0.1 ml of each of six twofold serial dilutions of the serum in 0.9% saline were injected intradermally into separate sites on the shaved dorsal surface of 250-350 g. Male Wistar rats. 72 hours later the animals were challenged by i v injection of 0.3 ml. of 1% ovalbumin mixed with 0.1 ml of a 5% solution of pontamine sky blue dye both in isotonic saline buffered with pH. 7.2 Sorenson buffer (P P S ) The rats were killed after 20 minutes and the diameter of the blue wheals at the antibody injection sites were measured. The starting dilution of the serum was adjusted so that there was no response after challenge, at the site of injection of the highest dilution and a maximum response at the two or three lowest dilutions. Typically, six twofold serial dilutions of the serum 1/4 to […] were used.
Amounts of the compounds were administered to rats by subcutaneous injection, into the nucal region, of a solution of the compound in P.B.S. or as a suspension in 1% methyl cellulose, each amount to a test group of six animals at a specified time prior to intravenous challenge with ovalbumin.
% Inhibition of P.C.A = 100 (1 - a/b)
For those compounds having insoluble sodium salts, the salts were isolated by reaction of the free nitro compound with 2.5N sodium hydroxide and the filtered sodium salt washed free of alkali with water. The dried salts were then administered as a suspension in 1% methyl cellulose.

Where [1] appears, read: 0 h, time 0 mins. prior to i.v. ovalbumin challenge.
Setting [2] is: 1 h, time 60 mins. prior to i.v. ovalbumin challenge.
[3] abbreviates: 0.5 h, time 30 mins. prior to i.v. ovalbumin challenge.

From patent publication US3962445A, “Anti-allergenic carbostyril derivatives” (Beecham Group Limited, priority 1973, dated 1976) come the findings set out here.

As to `Cc1cc2[nH]c(=O)c([N+](=O)[O-])c(O)c2cc1C` [Example 15, 6,7-Dimethyl-4-hydroxy-3-nitrocarbostyril], the inhibition at 25 mg/kg came out at 62% under setting [1] and 27% under setting [2]. The inhibition at 100 mg/kg is, setting by setting: under setting [1], 88%; under setting [2], 54%.

Turning to `Cc1cc2c(O)c([N+](=O)[O-])c(=O)n(C)c2cc1C` [Example 38, 4-Hydroxy-3-nitro-1,6,7-trimethylcarbostyril], under setting [1], the inhibition at 25 mg/kg came to 13% and the inhibition at 100 mg/kg stood at 53%. For the same molecule, under setting [3], the inhibition at 25 mg/kg turned out to be 14% and the inhibition at 100 mg/kg is 47%.

As to `O=c1[nH]c2cc(Cl)ccc2c(O)c1[N+](=O)[O-]` [Example 16, 7-Chloro-4-hydroxy-3-nitrocarbostyril], under setting [1], the inhibition at 25 mg/kg was -3% and the inhibition at 100 mg/kg is 13%. Besides, under setting [3], the inhibition at 25 mg/kg is 9% and the inhibition at 100 mg/kg was 63%.

On to `Cc1cc(C)c2[nH]c(=O)c([N+](=O)[O-])c(O)c2c1` [Example 11, 6,8-Dimethyl-4-hydroxy-3-nitrocarbostyril], for which, under setting [1], the inhibition at 25 mg/kg was determined as 11% and the inhibition at 100 mg/kg was 0%. Besides, under setting [2], the inhibition at 25 mg/kg was determined as 52% and the inhibition at 100 mg/kg is 51%.

For `Cc1ccc2[nH]c(=O)c([N+](=O)[O-])c(O)c2c1` [Example 4, 4-Hydroxy-6-methyl-3-nitrocarbostyril], under setting [1], the inhibition at 25 mg/kg was 14% and the inhibition at 100 mg/kg amounted to 30%. Moreover, under setting [2], the inhibition at 25 mg/kg worked out at 15% and the inhibition at 100 mg/kg turned out to be 23%.

Take `Cc1cccc2c(O)c([N+](=O)[O-])c(=O)[nH]c12` [Example 7, 4-Hydroxy-8-methyl-3-nitrocarbostyril]: under setting [1], the inhibition at 25 mg/kg stood at 23% and the inhibition at 100 mg/kg came out at 71%. Further, under setting [3], the inhibition at 25 mg/kg amounted to 18% and the inhibition at 100 mg/kg was 36%.

With `CCc1cc2[nH]c(=O)c([N+](=O)[O-])c(O)c2cc1CC` [Example 17, 6,7-Diethyl-4-hydroxy-3-nitrocarbostyril], under setting [1], the inhibition at 25 mg/kg was 25% and the inhibition at 100 mg/kg was 32%. For the same molecule, under setting [2], the inhibition at 25 mg/kg turned out to be 34% and the inhibition at 100 mg/kg was 42%.

Consider `CCn1c(=O)c([N+](=O)[O-])c(O)c2ccccc21` [Example 30, 1-Ethyl-4-hydroxy-3-nitro carbostyril], for which, under setting [1], the inhibition at 25 mg/kg came out at 9% and the inhibition at 100 mg/kg worked out at 20%. Besides, under setting [3], the inhibition at 25 mg/kg worked out at 34% and the inhibition at 100 mg/kg turned out to be 41%.

Take `Cc1ccc2c(c1)c(O)c([N+](=O)[O-])c(=O)n2C` [Example 32, 1,6-Dimethyl-4-hydroxy-3-nitro carbostyril]: the inhibition at 25 mg/kg is -12% under setting [1] and 55% under setting [3]. Further, the inhibition at 100 mg/kg worked out at 16% under setting [1] and 26% under setting [3].

For `O=c1[nH]c2ccc([N+](=O)[O-])cc2c(O)c1[N+](=O)[O-]` [Example 2, 3,6-Dinitro-4-hydroxycarbostyril], under setting [1], the inhibition at 25 mg/kg came out at 4% and the inhibition at 100 mg/kg is -14%. Moreover, under setting [2], the inhibition at 25 mg/kg was 31% and the inhibition at 100 mg/kg is 23%.

`O=c1[nH]c2c(Br)cccc2c(O)c1[N+](=O)[O-]` [Example 13, 8-Bromo-4-hydroxy-3-nitrocarbostyril]: under setting [1], the inhibition at 25 mg/kg was 36% and the inhibition at 100 mg/kg came out at 49%. Under setting [2], the inhibition at 25 mg/kg worked out at 32% and the inhibition at 100 mg/kg is 32%.

As for `CCn1c(=O)c([N+](=O)[O-])c(O)c2cc(Cl)ccc21` [Example 35, 6-Chloro-1-ethyl-4-hydroxy-3-nitro carbostyril], under setting [1], the inhibition at 25 mg/kg was -8% and the inhibition at 100 mg/kg was determined as 5%. Under setting [2], the inhibition at 25 mg/kg amounted to 11% and the inhibition at 100 mg/kg worked out at 88%.

For `Cn1c(=O)c([N+](=O)[O-])c(O)c2ccc(Cl)cc21` [Example 36, 7-Chloro-4-hydroxy-1-methyl-3-nitro carbostyril], under setting [1], the inhibition at 25 mg/kg is -4% and the inhibition at 100 mg/kg amounted to 34%. Moreover, under setting [2], the inhibition at 25 mg/kg is -2% and the inhibition at 100 mg/kg is 50%.

As to `Cc1ccc2c(O)c([N+](=O)[O-])c(=O)[nH]c2c1C` [Example 12, 7,8-Dimethyl-4-hydroxy-3-nitrocarbostyril], under setting [1], the inhibition at 25 mg/kg was 9% and the inhibition at 100 mg/kg was 50%. In addition, under setting [3], the inhibition at 25 mg/kg was 36% and the inhibition at 100 mg/kg came out at 47%.

Turning to `CCn1c(=O)c([N+](=O)[O-])c(O)c2cc(C)ccc21` [Example 33, 1-Ethyl-4-hydroxy-6-methyl-3-nitro carbostyril], under setting [1], the inhibition at 25 mg/kg is -12% and the inhibition at 100 mg/kg was -1%. Under setting [2], the inhibition at 25 mg/kg was -5% and the inhibition at 100 mg/kg was found to be 16%.

For the molecule `O=c1[nH]c2ccccc2c(O)c1[N+](=O)[O-]` [Example 1, 4-Hydroxy-3-nitrocarbostyril], under setting [1], the inhibition at 25 mg/kg came to 9% and the inhibition at 100 mg/kg was found to be 33%. Under setting [3], the inhibition at 25 mg/kg amounted to 19% and the inhibition at 100 mg/kg worked out at 40%.

Regarding `O=c1c([N+](=O)[O-])c(O)c2ccccc2n1-c1ccccc1` [Example 37, 4-Hydroxy-3-nitro-1-phenylcarbostyril], under setting [1], the inhibition at 25 mg/kg is -2% and the inhibition at 100 mg/kg was determined as 13%. Further, under setting [3], the inhibition at 25 mg/kg worked out at 1% and the inhibition at 100 mg/kg amounted to 42%.

In the case of `Cn1c(=O)c([N+](=O)[O-])c(O)c2ccccc21` [Example 31, 4-Hydroxy-1-methyl-3-nitro carbostyril], under setting [1], the inhibition at 25 mg/kg worked out at 21% and the inhibition at 100 mg/kg is 35%. Further, under setting [3], the inhibition at 25 mg/kg was 26% and the inhibition at 100 mg/kg worked out at 36%.

As to `Cc1cc(C)c2c(O)c([N+](=O)[O-])c(=O)[nH]c2c1` [Example 10, 5,7-Dimethyl-4-hydroxy-3-nitrocarbostyril], under setting [1], the inhibition at 25 mg/kg stood at 0% and the inhibition at 100 mg/kg is 22%. In addition, under setting [2], the inhibition at 25 mg/kg was 35% and the inhibition at 100 mg/kg came out at 44%.

On to `Cn1c(=O)c([N+](=O)[O-])c(O)c2cc(Cl)ccc21` [Example 34, 6-Chloro-4-hydroxy-1-methyl-3-nitro carbostyril], for which, under setting [1], the inhibition at 25 mg/kg is -5% and the inhibition at 100 mg/kg is 43%. Besides, under setting [2], the inhibition at 25 mg/kg was determined as 8% and the inhibition at 100 mg/kg was 61%.

Regarding `O=c1[nH]c2c(Cl)cccc2c(O)c1[N+](=O)[O-]` [Example 14, 8-Chloro-4-hydroxy-3-nitrocarbostyril], under setting [1], the inhibition at 25 mg/kg amounted to 18% and the inhibition at 100 mg/kg was found to be 26%. In addition, under setting [2], the inhibition at 25 mg/kg was 42% and the inhibition at 100 mg/kg was 43%.

Turning to `CCc1ccc2[nH]c(=O)c([N+](=O)[O-])c(O)c2c1` [Example 5, 6-Ethyl-4-hydroxy-3-nitro-carbostyril], the inhibition at 25 mg/kg by setting is: under setting [1], 19%; under setting [2], 13%. The inhibition at 100 mg/kg under setting [1] was 26% and the inhibition at 100 mg/kg under setting [2] came to 33%.

Turning to `Cc1ccc2c(O)c([N+](=O)[O-])c(=O)[nH]c2c1` [Example 6 (b), 4-hydroxy-7-methyl-3-nitrocarbostyril], under setting [1], the inhibition at 25 mg/kg was determined as 12% and the inhibition at 100 mg/kg came out at 7%. For the same molecule, under setting [2], the inhibition at 25 mg/kg came out at 1% and the inhibition at 100 mg/kg is 23%.

On to `Cc1ccc(C)c2c(O)c([N+](=O)[O-])c(=O)[nH]c12` [Example 9, 5,8-Dimethyl-4-hydroxy-3-nitrocarbostyril], for which the inhibition at 25 mg/kg was found to be 7% under setting [1] and 9% under setting [3]. In addition, the inhibition at 100 mg/kg is, setting by setting: under setting [1], 22%; under setting [3], 27%.

For the molecule `Cc1cccc2[nH]c(=O)c([N+](=O)[O-])c(O)c12` [Example 6 (a), 4-Hydroxy-5-methyl-3-nitrocarbostyril], under setting [1], the inhibition at 25 mg/kg was found to be 5% and the inhibition at 100 mg/kg was found to be 7%. Further, under setting [2], the inhibition at 25 mg/kg amounted to 1% and the inhibition at 100 mg/kg turned out to be 51%.

Consider `O=c1[nH]c2ccc(Cl)cc2c(O)c1[N+](=O)[O-]` [Example 3, 6-Chloro-4-hydroxy-3-nitrocarbostyril], for which, under setting [1], the inhibition at 25 mg/kg is -39% and the inhibition at 100 mg/kg was -30%. Under setting [2], the inhibition at 25 mg/kg amounted to 33% and the inhibition at 100 mg/kg was 54%.

In general, inhibition refers to the relative decrease from the control value, in per cent.
